Laboratory results taken from ChEMBL document CHEMBL4483862, “Open-source discovery of chemical leads for next-generation chemoprotective antimalarials” (2018).

Test system: Plasmodium berghei
Test: Luciferase/luciferin-expressing antifolate-resistant parasites were used to infect a culture of HepG2 cells that were pre-incubated with compounds. Infected hepatocytes emit light due to the luciferase reaction. Assay results are presented as the percent inhibition of light emission compared to control. […]
Format: functional
Details: sporozoite; for IC90: read-out: LUCIFERASE INFECTION ASSAY - IC90

Structure (SMILES): Cc1ccc2[nH]c3c(c2c1)CCCC3NCCCN(C)C (centres undefined)
- IC50 (HEPG2TOX_HILL_SLOPE 41.7, HEPG2TOX_R_SQUARED 0.689, PBLUC_HILL_SLOPE 2.08, PBLUC_R_SQUARED 0.555, read-out: LUCIFERASE INFECTION ASSAY - IC50): 4.94 µM
- IC90: > 11.5 µM

Structure (SMILES): O=C1C=CC(=O)N1Cc1cccs1
- IC50 (HEPG2TOX_HILL_SLOPE 35.1, HEPG2TOX_R_SQUARED 0.828, PBLUC_HILL_SLOPE 12.7, PBLUC_R_SQUARED 0.168, read-out: LUCIFERASE INFECTION ASSAY - IC50): 6.3 µM
- IC90: 7.49 µM

Structure (SMILES): Clc1ccc(Cl)c(-c2ccc(CNCCN3CCNCC3)o2)c1
- IC50 (HEPG2TOX_HILL_SLOPE 36.7, HEPG2TOX_R_SQUARED 0.263, PBLUC_HILL_SLOPE 4.39, PBLUC_R_SQUARED 0.663, read-out: LUCIFERASE INFECTION ASSAY - IC50): 4.28 µM
- IC90: 7.07 µM

Structure (SMILES): C=C(C)CN(CC)c1nc(N)c(C#N)c(C(C#N)Cc2ccc(C)cc2)c1C#N (centres undefined)
- IC50 (HEPG2TOX_HILL_SLOPE 73.4, HEPG2TOX_R_SQUARED 0.557, PBLUC_HILL_SLOPE 3.82, PBLUC_R_SQUARED 0.311, read-out: LUCIFERASE INFECTION ASSAY - IC50): 4.6 µM
- IC90: 8.18 µM

Structure (SMILES): O=C(Nc1ccc(Cl)cc1)Nc1ccc2c(c1)no[n+]2[O-]
- IC50 (HEPG2TOX_HILL_SLOPE 58.7, HEPG2TOX_R_SQUARED 0.822, PBLUC_HILL_SLOPE 3.98, PBLUC_R_SQUARED 0.47, read-out: LUCIFERASE INFECTION ASSAY - IC50): 4.62 µM
- IC90: 8.03 µM

Structure (SMILES): N#Cc1ccc(NC(=O)Cn2ncc(Cl)c(Cl)c2=O)cc1
- IC50 (HEPG2TOX_HILL_SLOPE 73.2, HEPG2TOX_R_SQUARED 0.451, PBLUC_HILL_SLOPE 8.64, PBLUC_R_SQUARED 0.375, read-out: LUCIFERASE INFECTION ASSAY - IC50): 4.06 µM
- IC90: 5.23 µM

Structure (SMILES): N#Cc1ccc(C(=O)Nc2ccc(Br)c(C(F)(F)F)c2)cc1
- IC50 (HEPG2TOX_HILL_SLOPE 28, HEPG2TOX_R_SQUARED 0.813, PBLUC_HILL_SLOPE 18.1, PBLUC_R_SQUARED 0.807, read-out: LUCIFERASE INFECTION ASSAY - IC50): 8.76 µM
- IC90: 9.89 µM

Structure (SMILES): O=C(Nc1ccc(Cl)cc1)n1ccc(/C=C/c2ncc(C(F)(F)F)cc2Cl)n1
- IC50 (HEPG2TOX_HILL_SLOPE 28.5, HEPG2TOX_R_SQUARED 0.883, PBLUC_HILL_SLOPE 15.5, PBLUC_R_SQUARED 0.352, read-out: LUCIFERASE INFECTION ASSAY - IC50): 7.23 µM
- IC90: > 7.72 µM

Structure (SMILES): CCC1CCCCN1C(=O)CSC(=Nc1ccccc1F)C(C#N)c1nc2ccccc2s1 (centres undefined)
- IC50 (HEPG2TOX_HILL_SLOPE 76.7, HEPG2TOX_R_SQUARED 0.475, PBLUC_HILL_SLOPE 22.7, PBLUC_R_SQUARED 0.0851, read-out: LUCIFERASE INFECTION ASSAY - IC50): 8.83 µM
- IC90: 9.73 µM

Structure (SMILES): CCOC(=O)c1c(C)[nH]c(C(=O)C(C)OC(=O)c2ccc(S(=O)(=O)N(C)c3ccccc3OC)cc2)c1C (centres undefined)
- IC50 (HEPG2TOX_HILL_SLOPE 113, HEPG2TOX_R_SQUARED 0.62, read-out: LUCIFERASE INFECTION ASSAY - IC50): > 10 µM
- IC90: > 10 µM

Structure (SMILES): Cc1cccc(C(=O)NCC(=O)Nc2ncc(C)s2)c1
- IC50 (HEPG2TOX_HILL_SLOPE 123, HEPG2TOX_R_SQUARED 0.298, PBLUC_HILL_SLOPE 16, PBLUC_R_SQUARED 0.209, read-out: LUCIFERASE INFECTION ASSAY - IC50): 9.16 µM
- IC90: > 10 µM

Structure (SMILES): O=C(Cn1ncc(Cl)c(Cl)c1=O)N(CCc1ccccc1)Cc1ccccc1
- IC50 (HEPG2TOX_HILL_SLOPE 33, HEPG2TOX_R_SQUARED 0.912, PBLUC_HILL_SLOPE 70.8, PBLUC_R_SQUARED 0.26, read-out: LUCIFERASE INFECTION ASSAY - IC50): 6.18 µM
- IC90: 6.37 µM

Structure (SMILES): Clc1nc2ccc3nsnc3c2nc1Cl
- IC50 (HEPG2TOX_HILL_SLOPE 109, HEPG2TOX_R_SQUARED 0.525, PBLUC_HILL_SLOPE 3.55, PBLUC_R_SQUARED 0.399, read-out: LUCIFERASE INFECTION ASSAY - IC50): 1.96 µM
- IC90: 3.65 µM

Structure (SMILES): Cc1ccc(C(CN2CCOCC2)NC(=O)c2occc2-c2ccccc2)cc1 (centres undefined)
- IC50 (HEPG2TOX_HILL_SLOPE 140, HEPG2TOX_R_SQUARED 0.302, PBLUC_HILL_SLOPE 0.784, PBLUC_R_SQUARED 0.306, read-out: LUCIFERASE INFECTION ASSAY - IC50): 8.27 µM
- IC90: > 10 µM

Structure (SMILES): CCn1nnnc1Sc1nc(C)nc2sc3c(c12)CCC3
- IC50 (HEPG2TOX_HILL_SLOPE 68.5, HEPG2TOX_R_SQUARED 0.626, PBLUC_HILL_SLOPE 11, PBLUC_R_SQUARED 0.226, read-out: LUCIFERASE INFECTION ASSAY - IC50): 3.05 µM
- IC90: 3.73 µM

Structure (SMILES): O=C(CN1CC=C(c2c[nH]c3ccccc23)CC1)Nc1ccccc1OC(F)F
- IC50 (HEPG2TOX_HILL_SLOPE 99.6, HEPG2TOX_R_SQUARED 0.512, PBLUC_HILL_SLOPE 10, PBLUC_R_SQUARED 0.0817, read-out: LUCIFERASE INFECTION ASSAY - IC50): > 10 µM
- IC90: > 10 µM

Structure (SMILES): COc1ccc(-c2nc3ccc(NC(=O)Nc4ccc(C)cc4)cn3n2)cc1
- IC50 (HEPG2TOX_HILL_SLOPE 50, HEPG2TOX_R_SQUARED 0.291, PBLUC_HILL_SLOPE 5.1, PBLUC_R_SQUARED 0.322, read-out: LUCIFERASE INFECTION ASSAY - IC50): 4.9 µM
- IC90: 7.53 µM

Structure (SMILES): CC1CCC/C(=C(/C#N)c2nc(-c3ccccc3O)cs2)C1 (centres undefined)
- IC50 (HEPG2TOX_HILL_SLOPE 34.1, 11.7, HEPG2TOX_R_SQUARED 0.352, 0.945, PBLUC_HILL_SLOPE 13.4, PBLUC_R_SQUARED 0.235, read-out: LUCIFERASE INFECTION ASSAY - IC50): 4.51 µM
- IC90: 5.31 µM

Structure (SMILES): CCCCSc1scc(-c2ccc(Cl)c(Cl)c2)c1C#N
- IC50 (HEPG2TOX_HILL_SLOPE 94.8, HEPG2TOX_R_SQUARED 0.896, read-out: LUCIFERASE INFECTION ASSAY - IC50): > 9.64 µM
- IC90: > 9.64 µM

Structure (SMILES): c1ccc(Oc2ccccc2-c2cnc3c(NCCc4cccnc4)nccn23)cc1
- IC50 (HEPG2TOX_HILL_SLOPE 47.6, HEPG2TOX_R_SQUARED 0.873, PBLUC_HILL_SLOPE 7.25, PBLUC_R_SQUARED 0.536, read-out: LUCIFERASE INFECTION ASSAY - IC50): 5.63 µM
- IC90: 7.62 µM

Structure (SMILES): CCN1C(=O)N(Cc2ccccn2)C(=O)C12CCN(Cc1ccc3c(c1)Cc1ccccc1-3)CC2
- IC50 (HEPG2TOX_HILL_SLOPE 46.6, HEPG2TOX_R_SQUARED 0.935, PBLUC_HILL_SLOPE 4.5, PBLUC_R_SQUARED 0.25, read-out: LUCIFERASE INFECTION ASSAY - IC50): 3.98 µM
- IC90: 6.49 µM

Structure (SMILES): O=C(Cn1ncc(Cl)c(Cl)c1=O)Nc1ccc(F)c(F)c1F
- IC50 (HEPG2TOX_HILL_SLOPE 271, HEPG2TOX_R_SQUARED 0.59, PBLUC_HILL_SLOPE 12.5, PBLUC_R_SQUARED 0.106, read-out: LUCIFERASE INFECTION ASSAY - IC50): 7.93 µM
- IC90: 9.46 µM

Structure (SMILES): COc1ccc(-c2cc(CN(C)c3ccc(S(=O)(=O)NC(C)(C)C)cc3[N+](=O)[O-])on2)cc1
- IC50 (HEPG2TOX_HILL_SLOPE 80.3, HEPG2TOX_R_SQUARED 0.674, PBLUC_HILL_SLOPE 12.7, PBLUC_R_SQUARED 0.427, read-out: LUCIFERASE INFECTION ASSAY - IC50): 3.54 µM
- IC90: 4.2 µM

Structure (SMILES): CCN(CC)c1ccc(/C=C(\C#N)c2nc3c(s2)CC(C)CC3)cc1 (centres undefined)
- IC50 (HEPG2TOX_HILL_SLOPE 34.4, HEPG2TOX_R_SQUARED 0.353, PBLUC_HILL_SLOPE 1.55, PBLUC_R_SQUARED 0.645, read-out: LUCIFERASE INFECTION ASSAY - IC50): 4.58 µM
- IC90: > 10 µM

Structure (SMILES): O=C(NNc1ccccc1)c1cccs1
- IC50 (HEPG2TOX_HILL_SLOPE 91.6, HEPG2TOX_R_SQUARED 0.623, PBLUC_HILL_SLOPE 5.23, PBLUC_R_SQUARED 0.266, read-out: LUCIFERASE INFECTION ASSAY - IC50): 4.82 µM
- IC90: 7.33 µM

Structure (SMILES): COc1ccc(CCN2C(=O)N(CC(C)C)C(=O)C23CCN(C2CCc4ccccc4C2)CC3)cc1 (centres undefined)
- IC50 (HEPG2TOX_HILL_SLOPE 52.5, HEPG2TOX_R_SQUARED 0.896, PBLUC_HILL_SLOPE 13.1, PBLUC_R_SQUARED 0.487, read-out: LUCIFERASE INFECTION ASSAY - IC50): 2.3 µM
- IC90: 2.72 µM

Structure (SMILES): Cc1ccc(C(CCNCc2ccc(F)cc2)c2ccco2)cc1 (centres undefined)
- IC50 (HEPG2TOX_HILL_SLOPE 46.4, HEPG2TOX_R_SQUARED 0.442, PBLUC_HILL_SLOPE 99.4, PBLUC_R_SQUARED 0.619, read-out: LUCIFERASE INFECTION ASSAY - IC50): 0.376 µM
- IC90: 0.384 µM

Structure (SMILES): COC(=O)c1ccc(/C=C/C(=O)c2ccccc2F)cc1
- IC50 (HEPG2TOX_HILL_SLOPE 28.5, HEPG2TOX_R_SQUARED 0.619, read-out: LUCIFERASE INFECTION ASSAY - IC50): > 10 µM
- IC90: > 10 µM

Structure (SMILES): Cc1cccc(C=C(C(=O)NC(C)c2ccccc2)C(=O)NC(C)c2ccccc2)c1 (centres undefined)
- IC50 (HEPG2TOX_HILL_SLOPE 105, HEPG2TOX_R_SQUARED 0.565, PBLUC_HILL_SLOPE 4.68, PBLUC_R_SQUARED 0.0675, read-out: LUCIFERASE INFECTION ASSAY - IC50): 5.19 µM
- IC90: 8.3 µM

Structure (SMILES): COc1ccc(CNCCC(c2ccc(F)cc2)c2ccco2)cc1 (centres undefined)
- IC50 (HEPG2TOX_HILL_SLOPE 73.6, HEPG2TOX_R_SQUARED 0.521, PBLUC_HILL_SLOPE 15.7, PBLUC_R_SQUARED 0.627, read-out: LUCIFERASE INFECTION ASSAY - IC50): 1.06 µM
- IC90: 1.22 µM

Structure (SMILES): COc1ccc2c(C)nc(Nc3nc(O)c4ccccc4n3)nc2c1
- IC50 (HEPG2TOX_HILL_SLOPE 241, HEPG2TOX_R_SQUARED 0.475, PBLUC_HILL_SLOPE 24.4, PBLUC_R_SQUARED 0.363, read-out: LUCIFERASE INFECTION ASSAY - IC50): 2.83 µM
- IC90: 3.1 µM

Structure (SMILES): Cc1oc2c(c1C(=O)NCC1CCCO1)C(=O)c1ccccc1C2=O (centres undefined)
- IC50 (HEPG2TOX_HILL_SLOPE 84.1, HEPG2TOX_R_SQUARED 0.355, PBLUC_HILL_SLOPE 3.6, PBLUC_R_SQUARED 0.607, read-out: LUCIFERASE INFECTION ASSAY - IC50): 0.178 µM
- IC90: 0.328 µM
